Assay results from PMC10482914, “Molecular architecture and electron transfer pathway of the Stn family transhydrogenase” (Nature Communications, 2023).
Each block holds one compound with its values, some of them ahead of it.

What was measured:
[1] = target: StnC subunit of the StnABC transhydrogenase complex from Sporomusa ovata (Sporomusa ovata); experiment: cryo-EM structure; single-particle cryo-EM of the natively purified StnABC complex, mildly cross-linked, anoxic; state S1 without added FMN and substrates (3.2 Å) and state S2 with 10 µM FMN, 500 µM NAD+, 30 µM Fd, 500 µM NADPH (3.0 Å); D2 symmetry
[2] = target: T1, StnABC complex (FMN / NAD(H) site in StnB) (Sporomusa ovata, UniProt A0A0U1KYM9); experiment: spectrophotometric, […] nm; assay type: biochemical; conditions: 0.25 mM NADH, 0.5 mM NADP+, 30 uM reduced ferredoxin; pH 8, 50 C
T1 construct: gene SpAn4DRAFT_2936; same complex as P1, other site; native purification from S. ovata, untagged; tetramer of StnABC heterotrimers; mildly BS3-crosslinked for cryo-EM; with Electron-bifurcating transhydrogenase subunit StnA (HydC / NuoE-like, thioredoxin-like [2Fe-2S] subunit)
T1 sequence (A0A0U1KYM9 1-584): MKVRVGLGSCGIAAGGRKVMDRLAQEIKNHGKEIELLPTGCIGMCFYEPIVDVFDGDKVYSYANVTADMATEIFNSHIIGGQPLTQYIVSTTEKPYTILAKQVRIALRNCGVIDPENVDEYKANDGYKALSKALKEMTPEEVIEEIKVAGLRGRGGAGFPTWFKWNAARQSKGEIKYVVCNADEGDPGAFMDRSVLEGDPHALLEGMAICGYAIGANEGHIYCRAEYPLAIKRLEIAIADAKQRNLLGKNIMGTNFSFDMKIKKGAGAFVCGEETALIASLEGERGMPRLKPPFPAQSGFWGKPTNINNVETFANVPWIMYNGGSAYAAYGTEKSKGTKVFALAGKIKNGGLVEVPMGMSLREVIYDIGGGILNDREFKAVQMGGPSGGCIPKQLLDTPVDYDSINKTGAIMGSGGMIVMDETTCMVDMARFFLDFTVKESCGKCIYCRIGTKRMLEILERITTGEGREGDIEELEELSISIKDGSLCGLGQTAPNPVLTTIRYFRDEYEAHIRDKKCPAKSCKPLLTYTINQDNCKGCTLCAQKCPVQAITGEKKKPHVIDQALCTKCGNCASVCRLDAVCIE
T1 sequence (A0A0U1KYW8 1-178 partner): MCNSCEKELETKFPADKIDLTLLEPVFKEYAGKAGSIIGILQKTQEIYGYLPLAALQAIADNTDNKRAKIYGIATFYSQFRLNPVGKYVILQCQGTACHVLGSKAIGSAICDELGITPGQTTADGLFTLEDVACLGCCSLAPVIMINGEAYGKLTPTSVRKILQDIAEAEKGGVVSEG
T1 sequence (A0A0U1KYI6 1-1172 partner): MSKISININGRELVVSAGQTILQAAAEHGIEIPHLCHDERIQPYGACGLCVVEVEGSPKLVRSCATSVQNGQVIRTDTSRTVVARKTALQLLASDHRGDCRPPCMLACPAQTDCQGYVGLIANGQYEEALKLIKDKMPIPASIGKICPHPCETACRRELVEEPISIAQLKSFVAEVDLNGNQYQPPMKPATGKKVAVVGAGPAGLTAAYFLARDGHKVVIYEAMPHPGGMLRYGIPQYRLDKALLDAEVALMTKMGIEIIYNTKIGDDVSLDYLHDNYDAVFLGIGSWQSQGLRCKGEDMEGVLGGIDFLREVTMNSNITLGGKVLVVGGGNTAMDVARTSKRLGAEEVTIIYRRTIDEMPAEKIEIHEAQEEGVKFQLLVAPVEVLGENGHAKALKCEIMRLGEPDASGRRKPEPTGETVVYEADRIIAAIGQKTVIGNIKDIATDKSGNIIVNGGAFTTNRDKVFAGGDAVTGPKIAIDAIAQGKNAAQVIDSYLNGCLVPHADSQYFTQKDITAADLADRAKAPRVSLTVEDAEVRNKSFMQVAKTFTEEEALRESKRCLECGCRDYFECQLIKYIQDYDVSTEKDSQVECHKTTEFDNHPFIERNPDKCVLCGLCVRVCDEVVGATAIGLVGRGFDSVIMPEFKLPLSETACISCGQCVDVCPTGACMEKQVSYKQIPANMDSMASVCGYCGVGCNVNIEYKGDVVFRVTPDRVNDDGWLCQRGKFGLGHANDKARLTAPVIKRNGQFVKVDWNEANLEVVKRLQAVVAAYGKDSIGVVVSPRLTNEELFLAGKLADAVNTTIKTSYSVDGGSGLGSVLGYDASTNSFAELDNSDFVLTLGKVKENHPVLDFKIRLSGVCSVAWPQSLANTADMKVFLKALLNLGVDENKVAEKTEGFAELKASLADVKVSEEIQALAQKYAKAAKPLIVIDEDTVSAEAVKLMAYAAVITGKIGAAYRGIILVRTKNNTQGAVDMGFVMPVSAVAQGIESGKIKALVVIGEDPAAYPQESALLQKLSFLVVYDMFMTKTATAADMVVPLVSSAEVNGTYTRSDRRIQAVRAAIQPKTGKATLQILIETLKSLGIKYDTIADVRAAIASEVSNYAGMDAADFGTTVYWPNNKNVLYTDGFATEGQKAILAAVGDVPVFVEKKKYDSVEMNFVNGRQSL

[3] = target: T2, StnABC complex (FAD / NADP(H) site in StnC) (Sporomusa ovata, UniProt A0A0U1KYI6); experiment: spectrophotometric, […] nm; assay type: biochemical; conditions: 0.5 mM NADP+, 0.25 mM NADH, 30 uM reduced ferredoxin; pH 8, 50 C
T2 construct: gene SpAn4DRAFT_2937; native purification from S. ovata cytoplasm, untagged; tetramer of StnABC heterotrimers (D2); StnC 1172 amino acids; mildly BS3-crosslinked for cryo-EM; with Electron-bifurcating transhydrogenase subunit StnB (HydB / NuoF-like subunit); Electron-bifurcating transhydrogenase subunit StnA (HydC / NuoE-like, thioredoxin-like [2Fe-2S] subunit)
T2 sequence (A0A0U1KYI6 1-1172): T1 sequence (A0A0U1KYI6 1-1172 partner)
T2 sequence (A0A0U1KYM9 1-584 partner): T1 sequence (A0A0U1KYM9 1-584)
T2 sequence (A0A0U1KYW8 1-178 partner): T1 sequence (A0A0U1KYW8 1-178 partner)

- stoichiometry N [1]: 4
Compound: StnC subunit of the StnABC transhydrogenase complex from Sporomusa ovata (natural protein)

Compound: NC(=O)C1=CN([C@@H]2O[C@H](COP(=O)(O)OP(=O)(O)OC[C@H]3O[C@@H](n4cnc5c(N)ncnc54)[C@H](O)[C@@H]3O)[C@@H](O)[C@H]2O)C=CC1 [NADH]
- spectrophotometric, 340 nm [2]: catalysed the Fdred and NADH-dependent reduction of NADP^+

Compound: NC(=O)c1ccc[n+]([C@@H]2O[C@H](COP(=O)(O)OP(=O)(O)OC[C@H]3O[C@@H](n4cnc5c(N)ncnc54)[C@H](OP(=O)(O)O)[C@@H]3O)[C@@H](O)[C@H]2O)c1 [NADP^+]
- spectrophotometric, 340 nm [3]: catalysed the Fdred and NADH-dependent reduction of NADP^+
